Data from article PMC8633983, “GTP binding to translation factor eIF2B stimulates its guanine nucleotide exchange activity” (iScience, 2021).

Target: T1, eIF2Bγ (in eIF2B complex) (Saccharomyces cerevisiae, UniProt P09032)
T1 construct: gene GCD1; purified eIF2B complex; with eIF2Bε (GCD6) and the other eIF2B subunits
Assay: competition filter binding against […]-GTP

T1 sequence (P09032 whole entry): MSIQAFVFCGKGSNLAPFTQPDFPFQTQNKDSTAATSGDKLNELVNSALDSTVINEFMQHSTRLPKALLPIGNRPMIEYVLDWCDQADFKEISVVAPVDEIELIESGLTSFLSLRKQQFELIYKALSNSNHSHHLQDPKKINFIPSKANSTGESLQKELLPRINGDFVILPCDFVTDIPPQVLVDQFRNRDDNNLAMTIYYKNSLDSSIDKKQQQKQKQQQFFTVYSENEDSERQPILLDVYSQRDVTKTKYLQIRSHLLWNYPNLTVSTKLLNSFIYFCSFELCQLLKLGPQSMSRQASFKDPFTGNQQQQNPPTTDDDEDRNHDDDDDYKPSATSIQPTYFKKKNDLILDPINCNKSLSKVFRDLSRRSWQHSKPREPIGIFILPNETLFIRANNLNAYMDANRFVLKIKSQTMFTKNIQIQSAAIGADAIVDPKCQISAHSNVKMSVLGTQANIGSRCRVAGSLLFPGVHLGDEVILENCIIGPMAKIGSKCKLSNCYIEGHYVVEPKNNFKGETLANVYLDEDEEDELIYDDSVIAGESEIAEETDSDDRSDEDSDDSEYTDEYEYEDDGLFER
T1 sequence (P32501 whole entry partner): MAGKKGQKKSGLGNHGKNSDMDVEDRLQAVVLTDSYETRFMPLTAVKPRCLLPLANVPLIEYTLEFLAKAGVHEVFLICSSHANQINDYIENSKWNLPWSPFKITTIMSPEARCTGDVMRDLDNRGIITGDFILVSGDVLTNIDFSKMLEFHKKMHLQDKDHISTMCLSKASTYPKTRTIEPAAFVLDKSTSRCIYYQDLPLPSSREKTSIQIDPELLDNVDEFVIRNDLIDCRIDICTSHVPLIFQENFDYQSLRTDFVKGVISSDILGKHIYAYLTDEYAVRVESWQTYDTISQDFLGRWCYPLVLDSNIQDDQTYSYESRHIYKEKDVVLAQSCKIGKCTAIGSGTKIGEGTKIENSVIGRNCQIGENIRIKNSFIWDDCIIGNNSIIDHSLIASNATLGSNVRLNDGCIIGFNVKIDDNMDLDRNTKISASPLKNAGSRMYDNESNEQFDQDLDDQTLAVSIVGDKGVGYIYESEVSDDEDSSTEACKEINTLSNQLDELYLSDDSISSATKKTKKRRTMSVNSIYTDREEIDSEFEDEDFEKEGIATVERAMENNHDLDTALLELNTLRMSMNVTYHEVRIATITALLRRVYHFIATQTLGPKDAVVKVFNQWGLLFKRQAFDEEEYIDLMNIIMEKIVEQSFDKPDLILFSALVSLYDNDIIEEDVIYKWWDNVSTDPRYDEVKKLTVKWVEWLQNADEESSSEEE
T1 sequence (P14741 2-305 partner): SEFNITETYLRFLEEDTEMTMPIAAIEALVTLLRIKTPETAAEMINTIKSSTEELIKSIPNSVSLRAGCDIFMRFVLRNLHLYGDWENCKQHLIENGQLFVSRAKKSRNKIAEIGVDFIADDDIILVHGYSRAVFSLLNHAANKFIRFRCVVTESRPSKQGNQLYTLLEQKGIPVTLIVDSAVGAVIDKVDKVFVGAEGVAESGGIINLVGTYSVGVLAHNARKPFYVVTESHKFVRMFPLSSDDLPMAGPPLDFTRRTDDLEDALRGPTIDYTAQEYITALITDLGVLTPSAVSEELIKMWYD
T1 sequence (P32502 whole entry partner): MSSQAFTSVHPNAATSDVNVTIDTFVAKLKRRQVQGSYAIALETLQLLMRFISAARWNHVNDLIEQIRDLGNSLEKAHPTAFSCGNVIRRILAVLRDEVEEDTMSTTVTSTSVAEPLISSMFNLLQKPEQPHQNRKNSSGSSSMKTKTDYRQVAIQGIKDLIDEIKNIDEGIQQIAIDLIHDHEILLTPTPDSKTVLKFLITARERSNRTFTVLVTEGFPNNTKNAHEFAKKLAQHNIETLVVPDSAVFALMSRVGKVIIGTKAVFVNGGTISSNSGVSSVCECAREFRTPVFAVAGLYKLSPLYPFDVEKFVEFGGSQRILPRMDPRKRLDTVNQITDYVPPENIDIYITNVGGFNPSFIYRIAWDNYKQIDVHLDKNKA
T1 sequence (P12754 2-651 partner): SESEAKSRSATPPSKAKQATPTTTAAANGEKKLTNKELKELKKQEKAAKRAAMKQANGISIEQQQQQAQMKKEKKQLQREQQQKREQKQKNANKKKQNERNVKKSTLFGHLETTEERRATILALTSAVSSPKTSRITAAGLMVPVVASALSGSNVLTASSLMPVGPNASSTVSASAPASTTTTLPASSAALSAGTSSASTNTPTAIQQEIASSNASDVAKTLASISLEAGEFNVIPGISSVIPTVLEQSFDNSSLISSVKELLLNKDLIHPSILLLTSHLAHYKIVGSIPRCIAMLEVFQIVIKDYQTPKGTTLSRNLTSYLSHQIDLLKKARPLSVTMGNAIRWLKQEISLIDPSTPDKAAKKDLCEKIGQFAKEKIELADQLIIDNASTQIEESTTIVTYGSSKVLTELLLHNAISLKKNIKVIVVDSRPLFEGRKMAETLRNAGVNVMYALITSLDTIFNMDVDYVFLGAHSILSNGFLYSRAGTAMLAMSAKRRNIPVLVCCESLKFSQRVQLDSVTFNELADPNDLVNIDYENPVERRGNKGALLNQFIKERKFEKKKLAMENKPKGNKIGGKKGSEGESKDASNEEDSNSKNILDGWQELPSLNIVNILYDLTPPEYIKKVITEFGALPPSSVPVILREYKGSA

SMILES | competition filter binding against 32P-GTP
Nc1ncnc2c1ncn2[C@@H]1O[C@H](COP(=O)(O)OP(=O)(O)OP(=O)(O)O)[C@@H](O)[C@H]1O [ATP] | suggesting eIF2B can bind both ATP and GTP, but with a preference for GTP
Nc1nc2c(ncn2[C@@H]2O[C@H](COP(=O)(O)OP(=O)(O)O)[C@@H](O)[C@H]2O)c(=O)[nH]1 [GDP] | GTP was a more effective competitor than ATP or GDP
